Laboratory results reported in ChEMBL document CHEMBL1926622, “Novel cyclohexyl-amides as potent antibacterials targeting bacterial type IIA topoisomerases” (Bioorg Med Chem Lett, 2011).
≈ marks a conversion by molar mass, not a printed value. Calls of active or inactive are those of the source. No cut-off for these calls is given here.

Columns and labels:
Haemophilus influenzae [1] = assay: Antibacterial activity against Haemophilus influenzae H128 after 18 to 24 hrs by broth microdilution technique; assay type: functional
[2] = Inhibition of Escherichia coli DNA gyrase-mediated DNA replication using [3H]dATP by scintillation proximity assay
Streptococcus pneumoniae [3] = assay: Antibacterial activity against Streptococcus pneumoniae 1629 after 18 to 24 hrs by broth microdilution technique; assay type: functional
Staphylococcus aureus = assay: Antibacterial activity against Staphylococcus aureus WCUH 29 after 18 to 24 hrs by broth microdilution technique; assay type: functional
[4] = target: Voltage-gated inwardly rectifying potassium channel KCNH2 (Homo sapiens, UniProt Q12809); assay: Inhibition of human ERG by whole cell patch clamp assay
Voltage-gated inwardly rectifying potassium channel KCNH2, sequence (Q12809 whole entry): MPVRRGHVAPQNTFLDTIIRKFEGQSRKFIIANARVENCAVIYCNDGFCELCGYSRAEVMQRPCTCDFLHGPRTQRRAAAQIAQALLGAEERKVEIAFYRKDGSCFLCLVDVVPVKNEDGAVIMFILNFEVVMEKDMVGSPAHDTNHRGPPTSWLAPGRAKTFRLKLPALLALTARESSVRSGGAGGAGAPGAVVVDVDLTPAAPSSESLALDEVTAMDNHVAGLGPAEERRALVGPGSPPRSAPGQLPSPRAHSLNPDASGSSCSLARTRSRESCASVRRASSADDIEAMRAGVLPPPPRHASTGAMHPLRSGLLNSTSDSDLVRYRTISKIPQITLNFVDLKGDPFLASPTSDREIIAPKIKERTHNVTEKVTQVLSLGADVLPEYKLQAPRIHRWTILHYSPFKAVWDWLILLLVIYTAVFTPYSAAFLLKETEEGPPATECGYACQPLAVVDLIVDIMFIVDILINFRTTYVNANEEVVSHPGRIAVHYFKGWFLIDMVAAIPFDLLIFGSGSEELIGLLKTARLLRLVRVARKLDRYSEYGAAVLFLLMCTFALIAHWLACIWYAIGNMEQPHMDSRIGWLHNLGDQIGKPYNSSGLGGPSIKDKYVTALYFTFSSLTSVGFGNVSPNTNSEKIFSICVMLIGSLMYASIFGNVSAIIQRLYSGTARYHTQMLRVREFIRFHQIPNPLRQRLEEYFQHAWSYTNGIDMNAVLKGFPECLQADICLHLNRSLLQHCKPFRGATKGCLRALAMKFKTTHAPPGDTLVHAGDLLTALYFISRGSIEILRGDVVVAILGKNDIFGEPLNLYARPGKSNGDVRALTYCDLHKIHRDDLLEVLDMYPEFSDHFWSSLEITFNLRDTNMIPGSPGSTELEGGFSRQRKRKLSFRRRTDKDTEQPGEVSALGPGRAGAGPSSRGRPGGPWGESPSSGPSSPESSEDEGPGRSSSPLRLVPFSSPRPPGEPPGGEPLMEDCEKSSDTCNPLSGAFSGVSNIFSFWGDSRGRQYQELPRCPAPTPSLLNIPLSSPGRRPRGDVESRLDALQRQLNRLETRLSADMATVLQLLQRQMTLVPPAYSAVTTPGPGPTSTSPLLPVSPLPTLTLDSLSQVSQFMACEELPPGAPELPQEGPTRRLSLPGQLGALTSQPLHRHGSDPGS

Haemophilus influenzae [5] = assay: Antibacterial activity against Haemophilus influenzae Q1 after 18 to 24 hrs by broth microdilution technique; assay type: functional
[6] = Oral bioavailability in cynomolgus monkey at 4.4 mg/kg; assay type: ADME, organism-based, Macaca fascicularis; settings: in vivo
[7] = Blood clearance in Sprague-Dawley rat at 2.9 mg/kg, iv; assay type: ADME, organism-based; design: dose 2.9 mg/kg, route intravenous
[8] = Oral bioavailability in Sprague-Dawley rat at 4.6 mg/kg; assay type: ADME, organism-based; settings: in vivo
[9] = Mean residence time in Beagle dog at 4.5 mg/kg, po; assay type: ADME, organism-based, Canis lupus familiaris; design: dose 4.5 mg/kg, route oral; settings: in vivo
[10] = AUC in Sprague-Dawley rat at 4.6 mg/kg, po; assay type: ADME, organism-based; design: dose 4.6 mg/kg, route oral; settings: plasma
Rattus norvegicus [11] = assay: Hepatic blood flow in Sprague-Dawley rat at 2.9 mg/kg, iv; assay type: ADME, organism-based, Liver; design: dose 2.9 mg/kg, route intravenous; settings: in vivo
[12] = Mean residence time in cynomolgus monkey at 4.4 mg/kg, po; assay type: ADME, organism-based, Macaca fascicularis; design: dose 4.4 mg/kg, route oral; settings: in vivo
[13] = Drug metabolism in dog liver microsomes assessed as mono-oxidation metabolite formation; assay type: ADME, Canis lupus familiaris, Microsome
[14] = Intrinsic clearance in monkey liver microsomes; assay type: ADME, Macaca mulatta, Microsome; settings: rhesus monkey
[15] = Plasma protein binding in rat; assay type: ADME, cell-free; settings: read-out: PPB (converted)
[16] = Drug metabolism in monkey liver microsomes assessed as mono-oxidation metabolite formation; assay type: ADME, Macaca mulatta, Microsome; settings: rhesus monkey
Liver = assay: Intrinsic clearance in dog liver microsomes; assay type: ADME, Canis lupus familiaris, Microsome
[17] = Half life in Beagle dog at 2.6 mg/kg, iv; assay type: ADME, organism-based, Canis lupus familiaris; design: dose 2.6 mg/kg, route intravenous; settings: in vivo
Streptococcus pneumoniae [18] = assay: Antibacterial activity against Streptococcus pneumoniae 1629 infected in rat assessed as complete eradication of infection at 50 mg/kg, po after 48 hrs; assay type: functional, organism-based; design: dose 50 mg/kg
Streptococcus pneumoniae [19] = assay: Antibacterial activity against Streptococcus pneumoniae 1629 infected in rat assessed as log decrease in colony forming units per lung at 25 mg/kg, po after 48 hrs relative to untreated control; assay type: functional
[20] = Blood clearance in cynomolgus monkey at 2.7 mg/kg, iv; assay type: ADME, organism-based, Macaca fascicularis; design: dose 2.7 mg/kg, route intravenous
Cynomolgus monkey [21] = assay: Renal clearance in cynomolgus monkey at 2.7 mg/kg, iv; assay type: ADME, organism-based, Macaca fascicularis, Kidney; design: dose 2.7 mg/kg, route intravenous; settings: in vivo
Rattus norvegicus [22] = assay: Renal clearance in Sprague-Dawley rat at 2.9 mg/kg, iv; assay type: ADME, organism-based, Kidney; design: dose 2.9 mg/kg, route intravenous; settings: in vivo
[23] = Plasma protein binding in monkey; assay type: ADME, cell-free, Macaca mulatta; settings: rhesus monkey, read-out: PPB (converted)
[24] = Oral bioavailability in Beagle dog at 4.5 mg/kg; assay type: ADME, organism-based, Canis lupus familiaris; settings: in vivo
Cynomolgus monkey [25] = assay: Hepatic blood flow in cynomolgus monkey at 2.7 mg/kg, iv; assay type: ADME, organism-based, Macaca fascicularis, Liver; design: dose 2.7 mg/kg, route intravenous; settings: in vivo
Liver microsomes [26] = assay: Drug metabolism in rat liver microsomes assessed as mono-oxidation metabolite formation; assay type: ADME, Microsome
[27] = Volume of distribution at steady state in Sprague-Dawley rat at 2.9 mg/kg, iv; assay type: ADME, organism-based; design: dose 2.9 mg/kg, route intravenous; settings: in vivo, read-out: Vdss
Canis familiaris [28] = assay: Hepatic blood flow in Beagle dog at 2.6 mg/kg, iv; assay type: ADME, organism-based, Canis lupus familiaris, Liver; design: dose 2.6 mg/kg, route intravenous; settings: in vivo
[29] = AUC in cynomolgus monkey at 4.4 mg/kg, po; assay type: ADME, organism-based, Macaca fascicularis; design: dose 4.4 mg/kg, route oral; settings: plasma
[30] = Mean residence time in Sprague-Dawley rat at 4.6 mg/kg, po; assay type: ADME, organism-based; design: dose 4.6 mg/kg, route oral; settings: in vivo
Liver microsomes [31] = assay: Intrinsic clearance in human liver microsomes; assay type: ADME, Microsome
[32] = Half life in Sprague-Dawley rat at 2.9 mg/kg, iv; assay type: ADME, organism-based; design: dose 2.9 mg/kg, route intravenous; settings: in vivo
[33] = Half life in cynomolgus monkey at 2.7 mg/kg, iv; assay type: ADME, organism-based, Macaca fascicularis; design: dose 2.7 mg/kg, route intravenous; settings: in vivo
Canis familiaris [34] = assay: Renal clearance in Beagle dog at 2.6 mg/kg, iv; assay type: ADME, organism-based, Canis lupus familiaris, Kidney; design: dose 2.6 mg/kg, route intravenous; settings: in vivo
[35] = Plasma protein binding in dog; assay type: ADME, cell-free, Canis lupus familiaris; settings: read-out: PPB (converted)
[36] = Blood clearance in Beagle dog at 2.6 mg/kg, iv; assay type: ADME, organism-based, Canis lupus familiaris; design: dose 2.6 mg/kg, route intravenous
[37] = Volume of distribution at steady state in Beagle dog at 2.6 mg/kg, iv; assay type: ADME, organism-based, Canis lupus familiaris; design: dose 2.6 mg/kg, route intravenous; settings: in vivo, read-out: Vdss
[38] = AUC in Beagle dog at 4.5 mg/kg, po; assay type: ADME, organism-based, Canis lupus familiaris; design: dose 4.5 mg/kg, route oral; settings: plasma
[39] = Plasma protein binding in human; assay type: ADME, cell-free; settings: read-out: PPB (converted)
[40] = Volume of distribution at steady state in cynomolgus monkey at 2.7 mg/kg, iv; assay type: ADME, organism-based, Macaca fascicularis; design: dose 2.7 mg/kg, route intravenous; settings: in vivo, read-out: Vdss

CO[C@@H]1C[C@H](C(=O)Nc2cccc3ccc(C)nc23)CC[C@H]1NCc1cc2c(cn1)OCCO2
MIC (Haemophilus influenzae [1]): 16 µg/mL (≈ 34.6 µM) | IC50 [2]: 0.102 µg/mL (≈ 0.221 µM) | MIC (Streptococcus pneumoniae [3]): 0.5 µg/mL (≈ 1.08 µM) | MIC (Staphylococcus aureus): 0.5 µg/mL (≈ 1.08 µM)

COc1ccc2nccc(NC(=O)[C@]3(O)CC[C@@H](NCc4cnc5c(c4)OCCO5)CC3)c2n1
MIC (Haemophilus influenzae [1]): 2 µg/mL (≈ 4.3 µM) | IC50 [2]: 0.01 µg/mL (≈ 0.0215 µM) | MIC (Streptococcus pneumoniae [3]): 0.06 µg/mL (≈ 0.129 µM) | MIC (Staphylococcus aureus): 0.03 µg/mL (≈ 0.0644 µM)

COc1cc(F)c2nccc(NC(=O)[C@]3(O)CC[C@@H](NCc4cc5c(cn4)OCCO5)CC3)c2c1
MIC (Haemophilus influenzae [1]): 1 µg/mL (≈ 2.07 µM) | IC50 [2]: 0.009 µg/mL (≈ 0.0187 µM) | IC50 [4]: 113 µM | MIC (Streptococcus pneumoniae [3]): 0.125 µg/mL (≈ 0.259 µM) | MIC (Staphylococcus aureus): 0.06 µg/mL (≈ 0.124 µM)

N#Cc1ccc2cccc(NC(=O)[C@]3(O)CC[C@@H](NCc4cc5c(cn4)OCCO5)CC3)c2n1
MIC (Haemophilus influenzae [1]): 0.5 µg/mL (≈ 1.09 µM) | IC50 [2]: 0.002 µg/mL (≈ 0.00435 µM) | MIC (Streptococcus pneumoniae [3]): 0.06 µg/mL (≈ 0.131 µM) | MIC (Staphylococcus aureus): 0.03 µg/mL (≈ 0.0653 µM)

COc1ccc2nccc(NC(=O)[C@H]3CC[C@H](NCc4cc5c(cn4)OCCO5)CC3)c2n1
MIC (Haemophilus influenzae [1]): 0.25 µg/mL (≈ 0.556 µM) | IC50 [2]: 0.008 µg/mL (≈ 0.0178 µM) | IC50 [4]: 29 µM | MIC (Streptococcus pneumoniae [3]): 0.03 µg/mL (≈ 0.0667 µM) | MIC (Staphylococcus aureus): 0.01 µg/mL (≈ 0.0222 µM)

COc1ccc2nccc(NC(=O)[C@H]3CC[C@H](NCc4ccc5c(c4)OCCO5)CC3)c2c1
IC50 [2]: 0.017 µg/mL (≈ 0.038 µM) | IC50 [4]: 25 µM | MIC (Haemophilus influenzae [5]): 2 µg/mL (≈ 4.47 µM) | MIC (Streptococcus pneumoniae [3]): 0.25 µg/mL (≈ 0.559 µM) | MIC (Staphylococcus aureus): 0.03 µg/mL (≈ 0.067 µM)

Cc1ccc2cccc(NC(=O)[C@]3(O)CC[C@@H](NCc4cc5c(cn4)OCCO5)CC3)c2n1
MIC (Haemophilus influenzae [1]): 2 µg/mL (≈ 4.46 µM) | IC50 [2]: 0.05 µg/mL (≈ 0.111 µM) | IC50 [4]: 2 µM | MIC (Streptococcus pneumoniae [3]): 0.125 µg/mL (≈ 0.279 µM) | MIC (Staphylococcus aureus): 0.125 µg/mL (≈ 0.279 µM)

COc1ccc2nccc(NC(=O)[C@]3(O)CC[C@@H](NCc4cc5c(cn4)OCCO5)CC3)c2c1
MIC (Haemophilus influenzae [1]): 1 µg/mL (≈ 2.15 µM) | IC50 [2]: 0.01 µg/mL (≈ 0.0215 µM) | IC50 [4]: 200 µM | MIC (Streptococcus pneumoniae [3]): 0.125 µg/mL (≈ 0.269 µM) | MIC (Staphylococcus aureus): 0.125 µg/mL (≈ 0.269 µM)

N#Cc1ccc2cccc(NC(=O)[C@@H]3CC[C@@H](NCc4cc5c(cn4)OCCO5)[C@@H](O)C3)c2n1
MIC (Haemophilus influenzae [1]): 0.5 µg/mL (≈ 1.09 µM) | IC50 [2]: 0.001 µg/mL (≈ 0.00218 µM) | MIC (Streptococcus pneumoniae [3]): 0.03 µg/mL (≈ 0.0653 µM) | MIC (Staphylococcus aureus): 0.01 µg/mL (≈ 0.0218 µM)

COc1ccc2nccc(NC(=O)[C@]3(O)CC[C@@H](NCc4ccc5c(c4)OCCO5)CC3)c2n1
MIC (Haemophilus influenzae [1]): 0.5 µg/mL (≈ 1.08 µM) | IC50 [2]: 0.004 µg/mL (≈ 0.00861 µM) | IC50 [4]: 25 µM | MIC (Streptococcus pneumoniae [3]): 0.03 µg/mL (≈ 0.0646 µM) | MIC (Staphylococcus aureus): 0.03 µg/mL (≈ 0.0646 µM)

COc1ccc2nccc(NC(=O)[C@]3(O)CC[C@@H](NCc4cc5c(cn4)OCCO5)CC3)c2n1
bioavailability [6]: 9% | clearance [7]: 41.1 mL/min/kg | bioavailability [8]: 18% | MIC (Haemophilus influenzae [1]): 0.5 µg/mL (≈ 1.07 µM) | MRT [9]: 9.8 h | AUC [10]: 340 ng·h/mL | QH (Rattus norvegicus [11]): 73% | IC50 [2]: 0.013 µg/mL (≈ 0.0279 µM) | MRT [12]: 6.4 h | Drug metabolism [13]: Active | CL [14]: 2.6 mL/min/g | fraction unbound [15]: 0.268 | Drug metabolism [16]: Active | CL (Liver): 2.2 mL/min/g | half-life [17]: 6.3 h | Activity (Streptococcus pneumoniae [18]): Active | log10cfu (Streptococcus pneumoniae [19]): 2 | clearance [20]: 34.2 mL/min/kg | CL (Cynomolgus monkey [21]): 3% | CL (Rattus norvegicus [22]): 3% | fraction unbound [23]: 0.165 | bioavailability [24]: 63% | QH (Cynomolgus monkey [25]): 73% | Drug metabolism (Liver microsomes [26]): Active | Vd [27]: 2.41 L/kg | QH (Canis familiaris [28]): 73% | MIC (Streptococcus pneumoniae [3]): 0.125 µg/mL (≈ 0.269 µM) | AUC [29]: 190 ng·h/mL | MRT [30]: 2.9 h | CL (Liver microsomes [31]): 0.8 mL/min/g | half-life [32]: 1 h | half-life [33]: 1.8 h | MIC (Staphylococcus aureus): 0.01 µg/mL (≈ 0.0215 µM) | CL (Canis familiaris [34]): 3% | fraction unbound [35]: 0.263 | clearance [36]: 8.4 mL/min/kg | Vd [37]: 3.7 L/kg | AUC [38]: 5700 ng·h/mL | fraction unbound [39]: 0.274 | Vd [40]: 4.1 L/kg

Cc1ccc2cccc(NC(=O)[C@H]3CC[C@H](NCc4cc5c(cn4)OCCO5)CC3)c2n1
MIC (Haemophilus influenzae [1]): 2 µg/mL (≈ 4.62 µM) | IC50 [2]: 0.069 µg/mL (≈ 0.16 µM) | MIC (Streptococcus pneumoniae [3]): 0.25 µg/mL (≈ 0.578 µM) | MIC (Staphylococcus aureus): 0.125 µg/mL (≈ 0.289 µM)

COc1ccc2nccc(NC(=O)[C@H]3CC[C@H](NCc4ccc5c(c4)OCCO5)CC3)c2n1
MIC (Haemophilus influenzae [1]): 1 µg/mL (≈ 2.23 µM) | IC50 [2]: 0.003 µg/mL (≈ 0.00669 µM) | MIC (Streptococcus pneumoniae [3]): 0.125 µg/mL (≈ 0.279 µM) | MIC (Staphylococcus aureus): 0.03 µg/mL (≈ 0.0669 µM)
